Measured values reported in ChEMBL document CHEMBL3039007, “Structure-based identification of OATP1B1/3 inhibitors” (Mol Pharmacol, 2013).

Assays:
[1] = target: T1, Solute carrier organic anion transporter family member 1B1 (Homo sapiens, UniProt Q9Y6L6); settings: chinese hamster, cho, 10 µM
T1 sequence (Q9Y6L6 whole entry): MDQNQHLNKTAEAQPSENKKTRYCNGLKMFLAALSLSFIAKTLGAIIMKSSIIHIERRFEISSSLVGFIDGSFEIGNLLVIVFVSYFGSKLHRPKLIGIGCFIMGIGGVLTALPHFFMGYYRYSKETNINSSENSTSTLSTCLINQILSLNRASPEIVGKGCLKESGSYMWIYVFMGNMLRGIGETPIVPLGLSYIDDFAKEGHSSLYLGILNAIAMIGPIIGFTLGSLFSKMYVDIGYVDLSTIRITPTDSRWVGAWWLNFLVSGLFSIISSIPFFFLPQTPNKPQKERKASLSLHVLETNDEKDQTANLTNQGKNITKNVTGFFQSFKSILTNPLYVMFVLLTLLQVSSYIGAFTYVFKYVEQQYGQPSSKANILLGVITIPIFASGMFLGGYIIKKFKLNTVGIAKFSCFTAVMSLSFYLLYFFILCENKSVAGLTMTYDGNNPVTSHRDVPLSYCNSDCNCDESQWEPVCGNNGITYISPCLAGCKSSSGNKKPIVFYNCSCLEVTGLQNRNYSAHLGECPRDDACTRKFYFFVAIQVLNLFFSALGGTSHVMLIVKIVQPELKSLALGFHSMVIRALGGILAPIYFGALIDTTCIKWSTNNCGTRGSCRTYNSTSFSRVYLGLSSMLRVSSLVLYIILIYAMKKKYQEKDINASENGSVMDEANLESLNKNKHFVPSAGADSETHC

[2] = target: T2, Solute carrier organic anion transporter family member 1B3 (Homo sapiens, UniProt Q9NPD5); settings: chinese hamster, cho, 10 µM
T2 sequence (Q9NPD5 whole entry): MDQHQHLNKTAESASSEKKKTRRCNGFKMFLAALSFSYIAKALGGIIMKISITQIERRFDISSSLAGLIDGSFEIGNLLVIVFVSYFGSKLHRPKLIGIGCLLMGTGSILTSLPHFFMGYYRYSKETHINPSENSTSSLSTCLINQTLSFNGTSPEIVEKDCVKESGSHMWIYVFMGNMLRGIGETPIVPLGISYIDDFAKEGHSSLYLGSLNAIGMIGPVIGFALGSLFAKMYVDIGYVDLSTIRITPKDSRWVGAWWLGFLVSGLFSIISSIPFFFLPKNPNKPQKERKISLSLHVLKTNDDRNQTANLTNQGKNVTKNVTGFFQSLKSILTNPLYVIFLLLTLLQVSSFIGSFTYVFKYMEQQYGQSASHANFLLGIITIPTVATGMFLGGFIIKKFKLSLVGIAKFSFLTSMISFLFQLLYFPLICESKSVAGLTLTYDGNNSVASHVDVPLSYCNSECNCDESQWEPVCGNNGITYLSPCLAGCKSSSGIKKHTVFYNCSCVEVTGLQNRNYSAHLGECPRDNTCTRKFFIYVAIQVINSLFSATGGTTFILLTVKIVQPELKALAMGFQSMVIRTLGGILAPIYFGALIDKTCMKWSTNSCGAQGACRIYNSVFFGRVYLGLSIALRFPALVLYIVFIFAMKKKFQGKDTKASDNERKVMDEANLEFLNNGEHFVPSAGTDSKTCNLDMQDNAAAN

Row | residual activity [1] | residual activity [2] | Structure (SMILES)
1 | 103.1% | 86.89% | Cc1cc2cc3c(C)cc(=O)oc3c(C)c2o1 [TRIOXSALEN]
2 | 98.24% | 113.8% | C[C@]12CCC(=O)C=C1CC[C@@H]1[C@@H]2[C@@H](O)C[C@@]2(C)[C@H]1CC[C@]2(O)C(=O)CO [HYDROCORTISONE]
3 | 176.8% | 136% | CC(C)=CCOc1cc2oc(=O)ccc2cc1O [PRENYLETIN]
4 | 88.4% | 98.94% | NNC(=O)c1ccncc1 [ISONIAZID]
5 | 105.4% | 102.5% | COC(=O)Nc1nc2ccc(Sc3ccccc3)cc2[nH]1 [FENBENDAZOLE]
6 | 55.19% | 43.93% | O=C1C(CC[S+]([O-])c2ccccc2)C(=O)N(c2ccccc2)N1c1ccccc1 (centres undefined) [SULFINPYRAZONE]
7 | 102.1% | 94.12% | CC(=O)Oc1cc(-c2coc3cc(OC(C)=O)c(OC(C)=O)c(OC(C)=O)c3c2=O)cc(OC(C)=O)c1OC(C)=O [IRIGINOL HEXAACEATATE]
8 | 102.9% | 100.9% | CN1CCOC(c2ccccc2)c2ccccc2C1 (centres undefined) [NEFOPAM]
9 | 111.8% | 131.1% | CCn1cc(C(=O)O)c(=O)c2cnc(N3CCNCC3)nc21 [PIPEMIDIC ACID]
10 | 63.23% | 72.63% | Cc1cccc(Nc2ccccc2C(=O)O)c1C [MEFENAMIC ACID]
11 | 106.1% | 110.2% | COc1ccc([C@@H]2CC(=O)c3c(O)cc(O[C@@H]4O[C@H](CO[C@@H]5O[C@@H](C)[C@H](O)[C@@H](O)[C@H]5O)[C@@H](O)[C@H](O)[C@H]4O)cc3O2)cc1O [HESPERIDIN]
12 | 73% | 99.63% | Cl.Clc1cccc(Cl)c1NC1=NCCN1 [CLONIDINE HYDROCHLORIDE]
13 | 112.9% | 102.3% | NC[C@H](O)c1ccc(O)c(O)c1 [NOREPINEPHRINE]
14 | 89.64% | 103.9% | CC(C)(O)[C@@H]1Cc2cc3ccc(=O)oc3cc2O1 [MARMESIN]
15 | 49.11% | 50.28% | Cc1ccc(C(C)C)cc2c(C)ccc1-2 [GUAIAZULEN]
16 | 96.97% | 92.24% | C=C(C)/C=C1/C=CC(=O)C(C)=C1 [RETUSOQUINONE]
17 | 114.7% | 112% | OC[C@H]1O[C@@H](n2cnc3c(NCc4ccco4)ncnc32)[C@H](O)[C@@H]1O [KINETIN RIBOSIDE]
18 | 79.91% | 90.71% | CCCc1cc(=O)[nH]c(=S)[nH]1 [PROPYLTHIOURACIL]
19 | 90.55% | 60.87% | O=C(CCCCC(=O)Nc1c(I)cc(I)c(C(=O)O)c1I)Nc1c(I)cc(I)c(C(=O)O)c1I [IODIPAMIDE]
20 | 32.24% | 51.47% | CC1=C(/C=C/C(C)=C/C=C/C(C)=C\C(=O)O)C(C)(C)CCC1 [ISOTRETINOIN]

More lines, now with the values behind:

Row | Structure (SMILES) | residual activity [1] | residual activity [2]
21 | Cc1nnc(SCC2=C(C(=O)[O-])N3C(=O)[C@@H](NC(=O)Cn4cnnn4)[C@H]3SC2)s1.[Na+] [CEFAZOLIN SODIUM] | 84.25% | 95.92%
22 | CC(C)(C)CC(C)(C)c1ccc(O)c(Cc2ccc(Cl)cc2Cl)c1 [CLOFOCTOL] | 77.9% | 76.53%
23 | Clc1ccc(COC(Cn2ccnc2)c2ccc(Cl)cc2Cl)cc1.O=[N+]([O-])O (centres undefined) [ECONAZOLE NITRATE] | 146.5% | 127.4%
24 | COc1cccc(-c2cc(=O)c3cc(OC)ccc3o2)c1 [6,3'-DIMETHOXYFLAVONE] | 131.7% | 120.4%
25 | CC(=O)O[C@H]1CC[C@@]2(C)[C@@H](CC[C@H]3[C@@H]4CC=C(C(C)=O)[C@@]4(C)C(=O)C[C@@H]32)C1 | 81.91% | 85.5%
26 | CC(=O)CC1CCCCN1.Cl (centres undefined) [PELLETIERINE HYDROCHLORIDE] | 75.96% | 95.02%
27 | O=C(CC[N+](=O)[O-])OC[C@H]1O[C@@H](O)[C@H](OC(=O)CC[N+](=O)[O-])[C@@H](OC(=O)CC[N+](=O)[O-])[C@@H]1OC(=O)CC[N+](=O)[O-] [ENDECAPHYLLIN X] | 80.29% | 82.04%
28 | CC(C)[C@]12O[C@H]1[C@@H]1O[C@@]13[C@@]1(C)CCC4=C(COC4=O)[C@@H]1C[C@@H]1O[C@@]13C2=O [TRIPTONIDE] | 74.69% | 84.23%
29 | CC1(C)[C@@H](OC(=O)CCC(=O)[O-])CC[C@]2(C)[C@H]3C(=O)C=C4[C@@H]5C[C@@](C)(C(=O)[O-])CC[C@]5(C)CC[C@@]4(C)[C@]3(C)CC[C@@H]12.[Na+].[Na+] [CARBENOXOLONE SODIUM] | 15.44% | 14.47%
30 | Cc1c(O)c(O)cc2c1CC=C1[C@@]2(C)CC[C@@]2(C)[C@@H]3C[C@](C)(C(=O)O)CC[C@]3(C)CC[C@]12C [DIHYDROCELASTROL] | 70.52% | 40.35%
31 | CCOC(=O)[C@H](CCc1ccccc1)N[C@@H](C)C(=O)N1CCC[C@H]1C(=O)O.O=C(O)/C=C\C(=O)O [ENALAPRIL MALEATE] | 190.1% | 110.9%
32 | O=C1O[C@H]([C@@H](O)CO)C(O)=C1O [ASCORBIC ACID] | 84.23% | 96.05%
33 | CSc1nc(NC(C)C)nc(NC(C)C)n1 [PROMETRYN] | 175.4% | 86.3%
34 | CC1=C(C(=O)O)N2C(=O)[C@@H](NC(=O)[C@H](N)c3ccc(O)cc3)[C@H]2SC1 [CEFADROXIL] | 88.52% | 101.2%
35 | C(=C\c1ccccc1)/CN1CCN(C(c2ccccc2)c2ccccc2)CC1 [CINNARIZINE] | 185.1% | 102.7%
36 | CNNC.Cl [1,2-DIMETHYLHYDRAZINE HYDROCHLORIDE] | 108.5% | 99.77%
37 | CCCCOc1ccc(CC(=O)NO)cc1 [BUFEXAMAC] | 89.04% | 92.18%
38 | CC1=CC(=O)C2=C(C)CC[C@@H]3[C@H](OC(=O)[C@H]3C)[C@@H]12 [DESACETOXYMATRICARIN] | 129% | 118.5%
39 | OC[C@H]1O[C@@H](Oc2ccc(O)cc2)[C@H](O)[C@@H](O)[C@@H]1O [ARBUTIN] | 103.7% | 113.4%
40 | Oc1c(Cl)c(Cl)c(Cl)c(Cl)c1Cl [PENTACHLOROPHENOL] | 19.96% | 40.68%
41 | Cl.N[C@@H]1C[C@H]1c1ccccc1 [TRANYLCYPROMINE HYDROCHLORIDE] | 80.64% | 89.57%
42 | CC(C)c1c(O)ccc2c1CC[C@H]1[C@@](C)(CO)CCC[C@]21C [19-HYDROXYTOTAROL] | 15.89% | 20.52%
43 | CCOC(=O)n1ccn(C)c1=S [CARBIMAZOLE] | 114.4% | 101.8%
44 | COc1ccc(C(=O)/C=C/c2ccccc2)cc1 [4'-METHOXYCHALCONE] | 100.4% | 93.51%
45 | C[C@@H]1CC[C@@]23CCC4(C)[C@@](C=CC5[C@@]6(C)CCC(=O)C(C)(C)C6CC[C@]54C)(OC2=O)C3[C@H]1C (some centres undefined) [3-OXOURSAN (28-13)OLIDE] | 105.6% | 96.4%
46 | CO[C@H]1C[C@H](O[C@H]2CC[C@]3(C=O)[C@H]4CC[C@]5(C)[C@@H](C6=CC(=O)OC6)CC[C@]5(O)[C@@H]4CC[C@]3(O)C2)O[C@H](C)[C@H]1O [CYMARIN] | 87.74% | 87.59%
47 | CS(=O)(=O)OCCCCOS(C)(=O)=O [BUSULFAN] | 113.7% | 98.16%
